The target of this experiment is T1, human GPBAR1 (Homo sapiens, UniProt Q8TDU6).
T1 construct: expressed in transfected cells; host or cells: HEK-293T
T1 sequence (Q8TDU6 1-330): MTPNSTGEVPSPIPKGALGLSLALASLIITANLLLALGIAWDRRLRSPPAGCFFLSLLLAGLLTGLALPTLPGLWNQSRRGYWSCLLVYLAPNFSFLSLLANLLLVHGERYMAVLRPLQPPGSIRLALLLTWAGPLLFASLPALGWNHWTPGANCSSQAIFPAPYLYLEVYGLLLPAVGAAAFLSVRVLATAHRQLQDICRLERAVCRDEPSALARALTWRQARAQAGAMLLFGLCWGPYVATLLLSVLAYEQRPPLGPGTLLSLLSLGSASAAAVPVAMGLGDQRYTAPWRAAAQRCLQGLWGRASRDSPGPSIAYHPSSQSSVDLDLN
Put plainly: GPBAR1 mediated transactivation, CRE-luciferase reporter in transfected HEK-293T cells. It is filed as cell-based. The procedure: Selected compounds were tested in vitro on FXR and TGR5/GPBAR1 receptors (Table 1) using a whole cell model transfected with a reporter genes. The activity was evaluated in comparison with chenodeoxycholic acid (CDCA) and TLCA.
CDCA is a primary bile acid that functions as an endogenous ligand for FXR, while TLCA is a physiological ligand for TGR5/GPBAR1. In this assay, HepG2 cells (a liver-derived cell line) were cultured at 37° C. in minimum essential medium with Earl's salts containing 10% fetal bovine serum (FBS), 1% L-glutamine, and 1% penicillin/streptomycin. HEK-293T cells were cultured at 37° C. in D-MEM containing 10% fetal bovine serum (FBS), 1% L-glutamine, and 1% penicillin/streptomycin. The transfection experiments were performed using Fugene HD according to manufactured specifications. Cells were plated in a 24-well plate at 5×10^4 cells/well. For FXR mediated transactivation, HepG2 cells were transfected with 100 ng of pSG5-FXR, 100 ng of pSG5-RXR, 100 ng of pGL4.70 a vector encoding the human Renilla gene and 250 ng of the reporter vector p(hsp27)-TK-LUC containing the FXR response element IR1 cloned from the promoter of heat shock protein 27 (hsp27).
For GPBAR1 mediated transactivation, HEK-293T cells were transfected with 200 ng of pGL4.29, a reporter vector containing a cAMP response element (CRE) that drives the transcription of the luciferase reporter gene luc2P, with 100 ng of pCMVSPORT6-human GPBAR1, and with 100 ng of pGL4.70 a vector encoding the human Renilla gene. In control experiments HEK-293T cells were transfected only with vectors pGL4.29 and pGL4.70 to exclude any possibility that compounds could activate the CRE in a GPBAR1 independent manner. At 24 h post-transfection, cells were stimulated for 18 h with 10 μM TLCA as a control agent or putative GPBAR1 agonists as the same concentration. After treatments, cells were lysed in 100 μL of lysis buffer (25 mM Tris-phosphate, pH 7.8; 2 mM DTT; 10% glycerol; 1% Triton X-100), and 20 μL of cellular lysate was assayed for luciferase activity using the luciferase assay system. Luminescence was measured using Glomax 20/20 luminometer. Luciferase activities were normalized against Renilla activities. Antagonism against FXR of GPBAR1/TGR5 was measured as percent of activity in transactivation assay suing activity of TLCA as example of agonism.
The data on the activity of certain compounds of the invention on TGR5/GPBAR1 are described in the following table 1. In this table, activities for compounds of the invention on GPBAR1 was compared to those of the reference compound TLCA. For % of activity, each compound was tested at the concentration of 10 microM and transactivation activity of TLCA on CRE (i.e. TGR5/GPBAR1) was considered equal to 100%. For selectivity toward FXR, activity was assessed in HepG2 cells transfected with an FXR responsive element (IR1) cloned upstream to the luciferase gene. For calculation of efficacy data, maximal transactivation of IR1 caused by each compound (10 μM) was compared to maximal transactivation caused by CDCA (10 μM). GPBAR1/FXR selectivity calculated as ratio between % of activity toward GPBAR1 and % of activity toward FXR. Each experiment was conducted in triplicate.

Values joined by “and” are separate entries in the source; they are usually repeats but may differ in a detail not shown here. Equal entries are not always repeated.

`CC[C@]1(O)C[C@H]2[C@@H]3CC[C@H]([C@H](C)CC#N)[C@@]3(C)CC[C@@H]2[C@@]2(C)CC[C@@H](O)C[C@@H]12` [PBT110B, 3α,6α-dihydroxy-6β-ethyl-24-nor-5β-cholan-23-nitrile] registered an EC50 (HEK-293T CRE-luciferase transactivation) of 300 nM. In addition, the “GPBAR1 (% of activity in comparison to 10 μM TLCA)” value (compound at 10 microM, HEK-293T, TLCA = 100%, triplicate) is 101.2% and 101.2 ± 4.1%. The GPBAR1/FXR selectivity (ratio between % of activity toward GPBAR1 and % of activity toward FXR) is reported as 8.2.

For the origin of these results see patent publication US20230066156A1, “6-SUBSTITUTED, 22-CYANO HYODEOXYCHOLANIC ANALOGUES AND USES THEREOF” (PRECISION BIO-THERAPEUTICS S.R.L., priority 2019, published 2023).
